# Reference: ChEMBL document CHEMBL3351350, “Inhibition of C-terminal truncated PPM1D enhances the effect of doxorubicin on cell viability in human colorectal carcinoma cell line” (2014)
# Active and inactive are the calls of the source. No cut-off for these calls is given here.
# Tests used:
# A549 [1] = assay: Cytotoxicity against human A549 cells assessed as cell viability at 2 uM after 48 hrs by MTS assay; type: functional; settings: A549, 48 h, read-out: Activity
# [2] = molecular target: T1, Protein phosphatase 1D (Homo sapiens) (UniProt O15297); assay: Inhibition of C-terminal truncated PPM1D in human HCT116 cells assessed as increase in p21 level at 2 uM after 24 to 48 hrs by western blotting; type: cell-based; settings: HCT-116
# T1 sequence (whole entry): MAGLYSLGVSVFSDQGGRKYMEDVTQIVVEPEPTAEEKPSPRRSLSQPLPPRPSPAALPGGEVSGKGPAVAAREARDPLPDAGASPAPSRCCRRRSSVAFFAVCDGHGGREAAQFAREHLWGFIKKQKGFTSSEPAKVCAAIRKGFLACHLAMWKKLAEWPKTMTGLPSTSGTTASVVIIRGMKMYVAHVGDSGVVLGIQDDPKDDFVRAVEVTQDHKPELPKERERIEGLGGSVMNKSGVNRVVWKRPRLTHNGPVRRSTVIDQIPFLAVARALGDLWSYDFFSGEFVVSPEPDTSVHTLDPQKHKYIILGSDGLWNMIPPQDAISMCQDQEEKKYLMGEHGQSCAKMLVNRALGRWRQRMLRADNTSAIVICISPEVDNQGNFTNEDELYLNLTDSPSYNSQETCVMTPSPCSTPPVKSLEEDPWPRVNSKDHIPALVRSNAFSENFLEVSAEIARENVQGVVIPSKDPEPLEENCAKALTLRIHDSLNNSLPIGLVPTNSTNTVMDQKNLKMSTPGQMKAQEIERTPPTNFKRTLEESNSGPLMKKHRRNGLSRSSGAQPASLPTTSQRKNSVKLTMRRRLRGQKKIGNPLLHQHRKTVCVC
# [3] = Cytotoxicity against human HCT116 cells assessed as cell viability at 2 uM after 48 hrs by MTS assay; type: functional; settings: HCT-116, 48 h, read-out: Activity
# [4] = molecular target: T1, Protein phosphatase 1D (Homo sapiens); assay: Inhibition of C-terminal truncated PPM1D in human HCT116 cells assessed as increase in Ser15 phosphorylated p53 level at 2 uM after 24 to 48 hrs by western blotting; type: cell-based; settings: HCT-116
# HCT-116 [5] = assay: Cytotoxicity against human HCT116 cells assessed as inhibition of cell viability after 48 hrs by MTS assay; type: functional, cell-based
# A549 [6] = assay: Cytotoxicity against human A549 cells assessed as inhibition of cell viability after 48 hrs by MTS assay; type: functional, cell-based
# [7] = molecular target: T1, Protein phosphatase 1D (Homo sapiens); assay: Inhibition of C-terminal truncated PPM1D in human HCT116 cells assessed as increase in Ser15 phosphorylated p53 level at 40 uM after 24 to 48 hrs by western blotting in presence of doxorubicin; type: cell-based; settings: HCT-116
# [8] = Cytotoxicity against human HCT116 cells assessed as cell viability at 40 uM after 48 hrs by MTS assay; type: functional; settings: HCT-116, 48 h, read-out: Activity
# HCT-116 [9] = assay: Increase in C-terminal truncated PPM1D level in human HCT116 cells at 40 uM after 24 to 48 hrs by western blotting in presence of doxorubicin; type: functional, cell-based
# [10] = molecular target: T1, Protein phosphatase 1D (Homo sapiens); assay: Inhibition of C-terminal truncated PPM1D in human HCT116 cells assessed as increase in p21 level at 40 uM after 24 to 48 hrs by western blotting in presence of doxorubicin; type: cell-based; settings: HCT-116
# [11] = Cytotoxicity against human HCT116 cells assessed as cell viability at 40 uM after 48 hrs by MTS assay in presence of doxorubicin; type: functional; settings: HCT-116, 48 h, read-out: Activity
inhibition [2],inhibition [4],inhibition [7],inhibition [10],SMILES,viability at 2 µM (A549 [1]),viability at 2 µM [3],inhibition (HCT-116 [5]),inhibition (A549 [6]),viability at 40 µM [8],Activity (HCT-116 [9]),viability at 40 µM [11]
Active,Active,,,COc1cccc2c1C(=O)c1c(O)c3c(c(O)c1C2=O)C[C@@](O)(C(=O)CO)C[C@@H]3O[C@H]1C[C@H](N)[C@H](O)[C@H](C)O1 [DOXORUBICIN],5%,40.7%,Dose-dependent effect,Dose-dependent effect,,,
,,Active,Active,CC[Si](CC)(CC)O[C@@H]1C[C@H](C)C[C@@H]2[C@@H]1C[C@H](O[Si](C)(C)C(C)(C)C)[C@@H]1[C@](C)(CO)C[C@H](O)C[C@@]21C,,,,,94.2%,Active,26.3%
